According to patent US10494384B2, “Urea peptoid boric acid compound, pharmaceutical composition thereof, preparation method therefor, and uses thereof” (Peking University, priority 2015, dated 2019):
Like-named read-outs stand apart in the source and are kept apart here. Blank lines part the entries; values can stand above or below the molecule they belong to.

Legend:
[1] = tested on: MGC803 stomach cancer cells; assay: anti-tumor activity in vitro (IC50), MTT; assay type: cell-based; details: Homo sapiens, MGC-803, 72 h
Method: (§1) Cancer cells were cultured in vitro. When cell growth reached logarithmic phase, the cells were collected and centrifuged at 1000 rpm for 5 min, before the supernate was removed and the cells were suspended in a moderate amount of medium, and then the concentration of cell was adjusted to 3.5×10^4/mL. The cell suspension was added into a 96-well plate with 100 μL per well and cultured in a cell incubator (37° C., 5% CO2) for 24 h. Then test drugs of different end concentrations were added, and the negative control group was added DMSO (end concentration was 0.5%), while each group afforded three repetitive holes. After cultivation for another 72 h in the cell incubator, a solution containing 5 mg/ml MTT (20 μL) was added into each well and the 96-well plate was placed at 37° C. for 3 h. To each well was added 150 μL DMSO, after oscillation in a shaking table for 5 min, the optical density (OD) values at 492 nm/620 nm were measured. IC50 values were calculated by Prism Graphpad statistical software.

HepG2 liver cancer cells = assay: anti-tumor activity in vitro (IC50), MTT; assay type: cell-based; details: Homo sapiens, liver cancer cells, 72 h, read-out: IC50 (μM) HepG2
Method: as §1

[2] = target: T1, 20S proteasome extracted from rat liver (CT-L) (Rattus norvegicus, UniProt P18421+P28075); assay: inhibition of 20S proteasome, CT-L activity (fluorescent peptide); assay type: biochemical; details: rat liver 20S proteasome; for IC50: read-out: IC50 (μM) CT-L
T1 construct: 20S proteasome extracted from rat liver; from tissue; host or cells: rat liver
Method: (§2) 1 μg of 20S proteasome extracted from rat liver was incubated with a 100 μL solution containing various concentrations of the present compounds, 50 μM fluorescent peptides and 20 mM Tris-HCl at 37° C. for 1 h, respectively. […] 0.1% DMSO was used as a solvent control. Compared with the fluorescence of solvent control, an inhibition rate or IC50 value was calculated.

[3] = target: T2, 20S proteasome extracted from rat liver (T-L) (Rattus norvegicus, UniProt P40112+Q9JHW0); assay: inhibition of 20S proteasome, T-L activity (fluorescent peptide); assay type: biochemical; details: rat liver 20S proteasome; for IC50: read-out: IC50 (μM) T-L
T2 construct: 20S proteasome extracted from rat liver; from tissue; host or cells: rat liver
Method: as §2

[4] = tested on: Hela, human cervical carcinoma; assay: preliminary anti-tumor screening in vitro, MTT method; assay type: cell-based; details: read-out: inhibition rates (%) Hela
Method: (§3) The test methods used in this test example are routine methods for anti-tumor activities test in pharmaceutical area, for example, referring to the following reference: (J. Immunol Method, 1983, 65, 55).
(§4) Test models: A: MTT method (Hela, human cervical carcinoma); B: SRB method (BGC-823, […]); C: SRB method (MCF-7, breast cancer); D: SRB method (A549, human lung cancer); E: SRB method (PC3M1E8, prostate cancer).
(§5) Inhibition rates of the compounds were measured under concentrations of 0.1 μM, 1 μM or 10 μM.

[5] = target: T3, 20S proteasome extracted from rat liver (PGPH) (Rattus norvegicus, UniProt P28073+Q9JHW0); assay: inhibition of 20S proteasome, PGPH activity (fluorescent peptide); assay type: biochemical; details: rat liver 20S proteasome; for IC50: read-out: IC50 (μM) PGPH
T3 construct: 20S proteasome extracted from rat liver; from tissue; host or cells: rat liver
Method: as §2

BGC-823, liver cancer = assay: preliminary anti-tumor screening in vitro, SRB method; assay type: cell-based; details: Homo sapiens, read-out: inhibition rates (%) BGC-823
Method: as §3, §4, §5

MCF-7, breast cancer = assay: as above; assay type: cell-based; details: Homo sapiens, read-out: inhibition rates (%) MCF-7
Method: as §3, §4, §5

A549, human lung cancer = assay: as above; assay type: cell-based; details: read-out: inhibition rates (%) A549
Method: as §3, §4, §5

[6] = MGC80-3, MTT, value ± spread, read-out: IC50 (μM), growth of stomach cancer cells (MGC80-3)
[7] = stomach cancer cells, MTT, read-out: IC50 (μM) MGC803

IC50 [1, 6]: 0.0172 ± 0.002 µM
Compound: COc1cc2c(cc1OC)CN(C(=O)N[C@@H](Cc1ccccc1)C(=O)N[C@@H](CC(C)C)B(O)O)CC2 [Example 50, N-L-phenylalanyl-L-leucine borate-N′-6,7-dimethoxy-1,2,3,4-tetrahydroisoquinoline-urea]

IC50 [1, 6]: 0.361 ± 0.088 µM
Compound: COc1cccc2c1CCN(C(=O)N[C@@H](Cc1ccccc1)C(=O)N[C@@H](CC(C)C)B(O)O)C2 [Example 54, N-L-phenylalanyl-L-leucine borate-N′-5-methoxy-1,2,3,4-tetrahydroisoquinoline-urea]

IC50 [1, 6]: 0.0401 ± 0.005 µM
Compound: CC(C)C[C@H](NC(=O)[C@H](CCC(N)=O)NC(=O)N1CCc2ccccc2C1)B(O)O [Example 49]

IC50 [1, 6]: 0.111 ± 0.009 µM
Compound: CC(C)C[C@H](NC(=O)[C@H](Cc1ccc([N+](=O)[O-])cc1)NC(=O)N1CCc2ccccc2C1)B(O)O [Example 48, N-L-4-nitro-phenylalanyl-L-leucine borate-N′-1,2,3,4-tetrahydroisoquinoline-urea]

IC50 [1, 6]: 0.006 µM
Compound: CC(C)C[C@H](NC(=O)[C@H](Cc1ccccc1)NC(=O)N1CCc2ccsc2C1)B(O)O [Example 55, N-L-phenylalanyl-L-leucine borate-N′-4,5,6,7-tetrahydrothieno[2,3-c]pyridine-urea]

IC50 [1, 6]: > 100 µM
Compound: COc1ccc2c(c1)CN(C(=O)N[C@@H](Cc1ccccc1)C(=O)N[C@@H](CC(C)C)B(O)O)CC2 [Example 51, N-L-phenylalanyl-L-leucine borate-N′-7-methoxy-1,2,3,4-tetrahydroisoquinoline-urea]

IC50 [1, 6]: 0.0244 ± 0.005 µM
Compound: CC(C)C[C@H](NC(=O)[C@H](CCc1ccccc1)NC(=O)N1CCc2ccccc2C1)B(O)O [Example 47, N-L-homophenylalanyl-L-leucine borate-N′-1,2,3,4-tetrahydroisoquinoline-urea]

IC50 [1, 6]: 2.24 ± 0.503 µM
Compound: COc1cccc2c1CN(C(=O)N[C@@H](Cc1ccccc1)C(=O)N[C@@H](CC(C)C)B(O)O)CC2 [Example 53, N-L-phenylalanyl-L-leucine borate-N′-8-methoxy-1,2,3,4-tetrahydroisoquinoline-urea]

IC50 [1, 6]: 0.85 ± 0.106 µM
Compound: COc1ccc2c(c1)CCN(C(=O)N[C@@H](Cc1ccccc1)C(=O)N[C@@H](CC(C)C)B(O)O)C2 [Example 52, N-L-phenylalanyl-L-leucine borate-N′-6-methoxy-1,2,3,4-tetrahydroisoquinoline-urea]

More lines, now with the values behind:

Compound: CC(C)C[C@H](NC(=O)[C@H](Cc1ccccc1)NC(=O)NCc1ccccc1)B(O)O [Example 14, N-L-phenylalanyl-L-leucine borate-N′-benzylamine-urea]
IC50 (HepG2 liver cancer cells): 0.0873 µM
IC50 [1, 7]: 0.0188 µM
inhibition at 0.2 µM ([2]; 0.2 μM, 37° C., 1 h, read-out: inhibition rates (%) CT-L): 82.1%
inhibition at 2 µM ([2]; 2 μM, 37° C., 1 h, read-out: inhibition rates (%) CT-L): 96.1%
inhibition at 20 µM ([2]; 20 μM, 37° C., 1 h, read-out: inhibition rates (%) CT-L): 98.9%
inhibition at 0.2 µM ([3]; 0.2 μM, 37° C., 1 h, read-out: inhibition rates (%) T-L): 5.04%
inhibition at 2 µM ([3]; 2 μM, 37° C., 1 h, read-out: inhibition rates (%) T-L): 57.8%
inhibition at 20 µM ([3]; 20 μM, 37° C., 1 h, read-out: inhibition rates (%) T-L): 88.4%
inhibition at 0.1 µM ([4]; 0.1 μM): 40.3%
inhibition at 1 µM ([4]; 1 μM): 43.2%
inhibition at 10 µM ([4]; 10 μM): 53.5%
inhibition at 0.2 µM ([5]; 0.2 μM, 37° C., 1 h, read-out: inhibition rates (%) PGPH): 6.46%
inhibition at 2 µM ([5]; 2 μM, 37° C., 1 h, read-out: inhibition rates (%) PGPH): 84.6%
inhibition at 20 µM ([5]; 20 μM, 37° C., 1 h, read-out: inhibition rates (%) PGPH): 97%
inhibition at 0.1 µM (BGC-823, liver cancer; 0.1 μM): 12.9%
inhibition at 1 µM (BGC-823, liver cancer; 1 μM): 33.5%
inhibition at 10 µM (BGC-823, liver cancer; 10 μM): 38.2%
inhibition at 0.1 µM (MCF-7, breast cancer; MCF7, 0.1 μM): 51.9%
inhibition at 1 µM (MCF-7, breast cancer; MCF7, 1 μM): 67.8%
inhibition at 10 µM (MCF-7, breast cancer; MCF7, 10 μM): 72.2%
inhibition at 0.1 µM (A549, human lung cancer; 0.1 μM): 2.67%
inhibition at 1 µM (A549, human lung cancer; 1 μM): 13%
inhibition at 10 µM (A549, human lung cancer; 10 μM): 33.3%

Compound: CC(C)C[C@H](NC(=O)[C@H](CC(C)C)NC(=O)N1CCc2ccccc2C1)B(O)O [Example 40, N-L-leucyl-L-leucine borate-N′-1,2,3,4-tetrahydroisoquinoline-urea]
IC50 [1, 6]: 0.163 ± 0.008 µM

Compound: CC(C)C[C@H](NC(=O)[C@H](Cc1ccc2ccccc2c1)NC(=O)N1CCc2ccccc2C1)B(O)O [Example 43, N-L-naphthylalanyl-L-leucine borate-N′-1,2,3,4-tetrahydroisoquinoline-urea]
IC50 [1, 6]: 0.0173 ± 0.003 µM

Compound: CC(C)C[C@H](NC(=O)[C@H](Cc1ccccc1)NC(=O)N1CCc2ccccc2C1C)B(O)O (stereo partly drawn) [Example 39, N-L-phenylalanyl-L-leucine borate-N′-1-methyl-1,2,3,4-tetrahydroisoquinoline-urea]
IC50 [1, 6]: 0.139 ± 0.004 µM

Compound: CC(C)C[C@H](NC(=O)[C@H](Cc1ccccc1)NC(=O)N1CCCc2ccccc21)B(O)O [Example 38, N-L-phenylalanyl-L-leucine borate-N′-1,2,3,4-tetrahydroquinoline-urea]
IC50 [1, 6]: 0.137 ± 0.011 µM

Compound: CC(C)C[C@H](NC(=O)[C@H](Cc1c[nH]c2ccccc12)NC(=O)N1CCc2ccccc2C1)B(O)O [Example 45, N-L-tryptophanyl-L-leucine borate-N′-1,2,3,4-tetrahydroisoquinoline-urea]
IC50 [1, 6]: 0.0092 ± 0.001 µM

Compound: CC(C)C[C@H](NC(=O)[C@H](Cc1ccccc1)NC(=O)NCc1ccc(-c2ccccc2)cc1)B(O)O [Example 32, N-L-phenylalanyl-L-leucine borate-N′-p-phenyl-benzylamine-urea]
IC50 (HepG2 liver cancer cells): 0.0372 µM
IC50 [1, 7]: 0.00587 µM
IC50 [2]: 0.0003 µM
IC50 [3]: 1.15 µM
IC50 [5]: 0.24 µM

Compound: CC[C@H](C)[C@H](NC(=O)N1CCc2ccccc2C1)C(=O)N[C@@H](CC(C)C)B(O)O [Example 44, N-L-isoleucyl-L-leucine borate-N′-1,2,3,4-tetrahydroisoquinoline-urea]
IC50 [1, 6]: 0.139 ± 0.004 µM

Compound: CC(C)C[C@H](NC(=O)[C@H](Cc1ccccc1)NC(=O)N1CCc2ccc([N+](=O)[O-])cc2C1)B(O)O [Example 46, N-L-phenylalanyl-L-leucine borate-N′-7-nitro-1,2,3,4-tetrahydroisoquinoline-urea]
IC50 [1, 6]: 0.0046 µM

Compound: CC(C)C[C@H](NC(=O)[C@H](C)NC(=O)N1CCc2ccccc2C1)B(O)O [Example 41, N-L-alanyl-L-leucine borate-N′-1,2,3,4-tetrahydroisoquinoline-urea]
IC50 [1, 6]: 0.134 ± 0.003 µM

Compound: CC(C)C[C@H](NC(=O)[C@H](Cc1ccccc1)NC(=O)NCc1cccc2ccccc12)B(O)O [Example 34, N-L-phenylalanyl-L-leucine borate-N′-naphth-1-ylmethylamine-urea]
IC50 (HepG2 liver cancer cells): 0.0531 µM
IC50 [1, 7]: 0.00706 µM
IC50 [2]: 0.012 µM
IC50 [3]: 0.15 µM
IC50 [5]: 0.12 µM

Compound: CC(C)C[C@H](NC(=O)[C@@H](NC(=O)N1CCc2ccccc2C1)C(C)C)B(O)O [Example 42, N-L-valyl-L-leucine borate-N′-1,2,3,4-tetrahydroisoquinoline-urea]
IC50 [1, 6]: 0.143 ± 0.004 µM
